Data reported in ChEMBL document CHEMBL6134827, “The discovery of novel antimicrobial peptides against drug-resistant bacteria based on fragments fusion strategy” (Eur J Med Chem, 2025).
Positions of bridges follow the written chain, without caps; N, C: chain ends. Non-standard residues stand in square brackets, D forms with d. Residues, ends and D or L forms follow the SMILES beside them. Groups on a side chain read outwards from the residue. *: point of attachment. X1 = CC[C@H](C)CCCCC(=O)*; Dab = NCC[C@H](N)C(=O)O

Experiments:
Acinetobacter baumannii = test: Antimicrobial activity against multidrug resistant Acinetobacter baumannii assessed as inhibition of visible microbial growth incubated for 18 hrs by broth microdilution method; type: functional
Escherichia coli [1] = test: Antimicrobial activity against Escherichia coli ATCC 25922 assessed as inhibition of visible microbial growth incubated for 18 hrs by broth microdilution method; type: functional
Staphylococcus aureus [2] = test: Antimicrobial activity against multidrug resistant Staphylococcus aureus assessed as inhibition of visible microbial growth incubated for 18 hrs by broth microdilution method; type: functional
Pseudomonas aeruginosa [3] = test: Antimicrobial activity against multidrug resistant Pseudomonas aeruginosa assessed as inhibition of visible microbial growth incubated for 18 hrs by broth microdilution method; type: functional
Escherichia coli [4] = test: Antimicrobial activity against multidrug resistant Escherichia coli assessed as inhibition of visible microbial growth incubated for 18 hrs by broth microdilution method; type: functional
Staphylococcus aureus [5] = test: Antimicrobial activity against Staphylococcus aureus ATCC 29213 assessed as inhibition of visible microbial growth incubated for 18 hrs by broth microdilution method; type: functional
[6] = Cytotoxicity against human BEAS-2B cells assessed as inhibition of cell growth measured after 24 hrs by CCK-8 assay; type: toxicity, cell-based
[7] = Cytotoxicity against HEK293T cells assessed as survival rate at 64 microg/ml measured after 24 hrs by CCK-8 assay relative to control; type: toxicity, cell-based, HEK-293T; details: human, at 64 µg/mL, read-out: Survival
[8] = Cytotoxicity against human BEAS-2B cells assessed as survival rate at 64 microg/ml measured after 24 hrs by CCK-8 assay relative to control; type: toxicity, cell-based; details: at 64 µg/mL, read-out: Survival
[9] = Cytotoxicity against human LO2 cells assessed as survival rate at 64 microg/ml measured after 24 hrs by CCK-8 assay relative to control; type: toxicity, cell-based, L02; details: at 64 µg/mL, read-out: Survival
[10] = Hemolytic activity in human red blood cell assessed as hemolysis at 128 microg/ml measured after 1 hrs by microplate reader assay relative to control; type: toxicity, cell-based, Erythrocyte; details: red blood cells, at 128 µg/mL, read-out: Activity
Pseudomonas aeruginosa [11] = test: Drug resistance, ratio of MIC for multidrug resistant Pseudomonas aeruginosa after 14 passages to MIC for multidrug resistant Pseudomonas aeruginosa after first exposure; type: functional
L02 = test: Cytotoxicity against human LO2 cells assessed as reduction in cell viability at 2 to 64 microg/mL measured after 24 hrs by CCK-8 assay; type: toxicity, cell-based; details: l02, 24 h, dose 2-64 µg/ml
BEAS-2B = test: Cytotoxicity against human BEAS-2B cells assessed as reduction in cell viability at 2 to 64 microg/mL measured after 24 hrs by CCK-8 assay; type: toxicity, cell-based; details: dose 2-64 µg/ml

**Q.** Which results are given for CC(C)C[C@H](NC(=O)CN)C(=O)N[C@@H](CCCNC(=N)N)C(=O)N[C@@H](CCN)C(=O)N[C@@H](Cc1c[nH]c2ccccc12)C(=O)N[C@@H](CC(C)C)C(=O)N[C@@H](CCCNC(=N)N)C(=O)N[C@@H](CCCCN)C(=O)N[C@@H](Cc1ccccc1)C(=O)N[C@@H](CCCCN)C(=O)N[C@@H](CCCCN)C(=O)N[C@@H](Cc1ccccc1)C(=O)N[C@@H](Cc1c[nH]c2ccccc12)C(=O)O (H-GLR[Dab]WLRKFKKFW-OH)?
**A.** MIC (Acinetobacter baumannii): 4.5 µM; MIC (Escherichia coli [1]): 9.1 µM; MIC (Staphylococcus aureus [2]): 18.1 µM; MIC (Pseudomonas aeruginosa [3]): 4.5 µM; MIC (Escherichia coli [4]): 9.1 µM; MIC (Staphylococcus aureus [5]): 18.1 µM

**Q.** With CC(C)C[C@H](NC(=O)CN)C(=O)N[C@@H](CCN)C(=O)N[C@@H](CCN)C(=O)N[C@@H](Cc1c[nH]c2ccccc12)C(=O)N[C@@H](CC(C)C)C(=O)N[C@@H](CCN)C(=O)N[C@@H](CCN)C(=O)N[C@@H](Cc1ccccc1)C(=O)N[C@@H](CCN)C(=O)N[C@@H](CCN)C(=O)N[C@@H](Cc1ccccc1)C(=O)N[C@@H](Cc1c[nH]c2ccccc12)C(=O)O (H-GL[Dab][Dab]WL[Dab][Dab]F[Dab][Dab]FW-OH) as the molecule, how does the CC50 at 24 h [6] read?
**A.** The CC50 at 24 h was greater than 64 µg/mL.

**Q.** What about the viability at 24 h, 64 µg/mL [7] of the same molecule?
**A.** The viability at 24 h, 64 µg/mL was greater than 80%.

**Q.** And the MIC (Acinetobacter baumannii)?
**A.** The MIC was 5.1 µM.

**Q.** And the viability at 24 h, 64 µg/mL [8]?
**A.** The viability at 24 h, 64 µg/mL was greater than 80%.

**Q.** And the MIC (Escherichia coli [1])?
**A.** Its MIC is 5.1 µM.

**Q.** And the viability at 24 h, 64 µg/mL [9]?
**A.** The viability at 24 h, 64 µg/mL was greater than 80%.

**Q.** What about the MIC (Staphylococcus aureus [2]) of the same molecule?
**A.** The MIC was 5.1 µM.

**Q.** What about the MIC (Pseudomonas aeruginosa [3]) of the same molecule?
**A.** The MIC was 10.2 µM.

**Q.** What about the hemolysis at 1 h, 128 µg/mL [10] of the same molecule?
**A.** The hemolysis at 1 h, 128 µg/mL was less than 10%.

**Q.** What about the MIC (Escherichia coli [4]) of the same molecule?
**A.** The MIC was 10.2 µM.

**Q.** What about the MIC (Staphylococcus aureus [5]) of the same molecule?
**A.** The MIC was 5.1 µM.

**Q.** For CC(C)C[C@H](NC(=O)CN)C(=O)N[C@@H](CCCNC(=N)N)C(=O)NCCCC[C@H](N)C(=O)N[C@@H](Cc1c[nH]c2ccccc12)C(=O)N[C@@H](CC(C)C)C(=O)N[C@@H](CCCNC(=N)N)C(=O)N[C@@H](CCCCN)C(=O)N[C@@H](Cc1ccccc1)C(=O)N[C@@H](CCCCN)C(=O)N[C@@H](CCCCN)C(=O)N[C@@H](Cc1ccccc1)C(=O)N[C@@H](Cc1c[nH]c2ccccc12)C(=O)O (H-K([Arg-Leu-Gly])WLRKFKKFW-OH), which MIC (Acinetobacter baumannii) is on record?
**A.** Its MIC is 35.7 µM.

**Q.** And the MIC (Escherichia coli [1])?
**A.** Its MIC is 8.9 µM.

**Q.** What about the MIC (Staphylococcus aureus [2]) of the same molecule?
**A.** The MIC was 35.7 µM.

**Q.** And the MIC (Pseudomonas aeruginosa [3])?
**A.** Its MIC is 8.9 µM.

**Q.** And the MIC (Escherichia coli [4])?
**A.** The MIC was 35.7 µM.

**Q.** And the MIC (Staphylococcus aureus [5])?
**A.** Its MIC is 35.7 µM.

**Q.** For CC(C)CCCCC(=O)N[C@@H](CCN)C(=O)N[C@H](C(=O)N[C@@H](CCN)C(=O)N[C@H]1CCNC(=O)[C@H]([C@@H](C)O)NC(=O)[C@H](CCN)NC(=O)[C@H](CCN)NC(=O)[C@H](CC(C)C)NC(=O)[C@@H](Cc2ccccc2)NC(=O)[C@H](CCN)NC1=O)[C@@H](C)O.CC[C@H](C)CCCCC(=O)N[C@@H](CCN)C(=O)N[C@H](C(=O)N[C@@H](CCN)C(=O)N[C@H]1CCNC(=O)[C@H]([C@@H](C)O)NC(=O)[C@H](CCN)NC(=O)[C@H](CCN)NC(=O)[C@H](CC(C)C)NC(=O)[C@@H](Cc2ccccc2)NC(=O)[C@H](CCN)NC1=O)[C@@H](C)O (X1-[Dab]T[Dab][Dab][Dab][dF]L[Dab][Dab]T; lactam 4-C), which MIC (Acinetobacter baumannii) is on record?
**A.** The MIC was 0.8 µM.

**Q.** And the MIC (Escherichia coli [1])?
**A.** Its MIC is 0.4 µM.

**Q.** And the Ratio (Pseudomonas aeruginosa [11])?
**A.** Its Ratio is 4.

**Q.** What about the MIC (Pseudomonas aeruginosa [3]) of the same molecule?
**A.** The MIC was 2 µg/mL.

**Q.** And the MIC (Escherichia coli [4])?
**A.** Its MIC is 0.8 µM.

**Q.** What does the source list for H-GLRKFLRKFKKFGK-OH?
**A.** MIC (Acinetobacter baumannii): 36.5 µM; MIC (Escherichia coli [1]): 18.2 µM; MIC (Staphylococcus aureus [2]): 73 µM; MIC (Pseudomonas aeruginosa [3]): 73 µM; MIC (Escherichia coli [4]): 36.5 µM; MIC (Staphylococcus aureus [5]): 36.5 µM

**Q.** What does the source list for H-GLRKFLRKFKKFWK-OH?
**A.** MIC (Acinetobacter baumannii): 8.5 µM; MIC (Escherichia coli [1]): 8.5 µM; MIC (Staphylococcus aureus [2]): 34 µM; MIC (Pseudomonas aeruginosa [3]): 17 µM; MIC (Escherichia coli [4]): 17 µM; MIC (Staphylococcus aureus [5]): 34 µM

**Q.** For H-GLRKRLRKFKKFGK-OH, which MIC (Acinetobacter baumannii) is on record?
**A.** The MIC was 72.7 µM.

**Q.** And the MIC (Escherichia coli [1])?
**A.** Its MIC is 72.7 µM.

**Q.** And the MIC (Staphylococcus aureus [2])?
**A.** Its MIC is greater than 72.7 µM.

**Q.** And the MIC (Pseudomonas aeruginosa [3])?
**A.** The MIC was greater than 72.7 µM.

**Q.** What about the MIC (Escherichia coli [4]) of the same molecule?
**A.** The MIC was 72.7 µM.

**Q.** What about the MIC (Staphylococcus aureus [5]) of the same molecule?
**A.** Its MIC is 72.7 µM.

**Q.** Which results are given for H-GLRKWLRKFKKFW-OH?
**A.** CC50 at 24 h [6]: 38.4 µg/mL; MIC (Acinetobacter baumannii): 4.5 µM; MIC (Escherichia coli [1]): 8.9 µM; Activity (L02): Toxic; MIC (Staphylococcus aureus [2]): 17.8 µM; MIC (Pseudomonas aeruginosa [3]): 4.5 µM; hemolysis at 1 h, 128 µg/mL [10]: < 10%; MIC (Escherichia coli [4]): 4.5 µM; Activity (BEAS-2B): Toxic; MIC (Staphylococcus aureus [5]): 17.8 µM

**Q.** Which MIC (Acinetobacter baumannii) does the source give for H-GLRKWLRKFKKFWK-OH here?
**A.** Its MIC is 8.3 µM.

**Q.** What about the MIC (Escherichia coli [1]) of the same molecule?
**A.** The MIC was 8.3 µM.

**Q.** And the MIC (Staphylococcus aureus [2])?
**A.** Its MIC is 16.6 µM.

**Q.** And the MIC (Pseudomonas aeruginosa [3])?
**A.** Its MIC is 8.3 µM.

**Q.** And the MIC (Escherichia coli [4])?
**A.** The MIC was 8.3 µM.

**Q.** And the MIC (Staphylococcus aureus [5])?
**A.** The MIC was 16.6 µM.
